Experimental data from PubChem BioAssay AID248 (DTP/NCI, 2004).
“And” between values parts separate entries of the source, which are not always exact repeats. Equal values may be shown once. Inconclusive results and toxic doses are left out. Rule as the data show it: active = T/C of 150% or more; inactive = T/C below 125%.

Tested on: L1210 leukemia ip in BDF1 mice, survival T/C
Test: NCI In Vivo Anticancer Drug Screen. Data for tumor model L1210 Leukemia (intraperitoneal) in B6D2F1 (BDF1) mice
Settings: endpoint: mean survival time, higher = longer survival
Summary of the method: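 Tumor was transplanted into mice, which were then dosed with test compound or vehicle alone. Survival was recorded for each group, and the treated figure was expressed relative to the control figure.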

[1] = dose: 100.0 mg/kg/injection, schedule: Q01DX009 (ip), vehicle: saline
[2] = dose: 200.0 mg/kg/injection, schedule: Q01DX009 (ip), vehicle: saline
[3] = dose: 100.0 mg/kg/injection, schedule: Q04DX003 (ip), vehicle: Klucel (hydroxypropylcellulose) (HPC)
[4] = dose: 200.0 mg/kg/injection, schedule: Q04DX003 (ip), vehicle: Klucel (hydroxypropylcellulose) (HPC)
[5] = dose: 400.0 mg/kg/injection, schedule: Q04DX003 (ip), vehicle: Klucel (hydroxypropylcellulose) (HPC)
[6] = dose: 100.0 mg/kg/injection, schedule: Q01DX001 (ip), vehicle: carboxymethylcellulose (CMC)
[7] = dose: 200.0 mg/kg/injection, schedule: Q01DX001 (ip), vehicle: carboxymethylcellulose (CMC)
[8] = dose: 400.0 mg/kg/injection, schedule: Q01DX001 (ip), vehicle: carboxymethylcellulose (CMC)
[9] = dose: 100.0 mg/kg/injection, schedule: Q04DX003 (ip), vehicle: gum acacia
[10] = dose: 200.0 mg/kg/injection, schedule: Q04DX003 (ip), vehicle: gum acacia

Measured: T/C

O=C1C2CC3C(CC2C(=O)[N]1[Sn]([c]1ccccc1)([c]1ccccc1)[c]1ccccc1)C1(Cl)C(Cl)=C(Cl)C3(Cl)C1(Cl)Cl (stereo not drawn)
inactive: dose: 10.0 mg/kg/injection, schedule: Q01DX001 (ip), vehicle: carboxymethylcellulose (CMC) 98 % of control | dose: 20.0 mg/kg/injection, schedule: Q01DX001 (ip), vehicle: carboxymethylcellulose (CMC) 95 % of control | dose: 40.0 mg/kg/injection, schedule: Q01DX001 (ip), vehicle: carboxymethylcellulose (CMC) 101 % of control | dose: 80.0 mg/kg/injection, schedule: Q01DX001 (ip), vehicle: carboxymethylcellulose (CMC) 101 % of control

CC1CCC(C)(C)C1=O (stereo not drawn)
inactive: [1] 106 % of control | [2] 96 % of control | dose: 400.0 mg/kg/injection, schedule: Q01DX009 (ip), vehicle: saline 98 % of control

CC(C)(C)N1C=C(c2ccccc2)N=CC1(c1ccccc1)C(C)(C)C (stereo not drawn)
inactive: dose: 50.0 mg/kg/injection, schedule: Q04DX002 (ip), vehicle: saline with Tween-80 99 % of control | dose: 100.0 mg/kg/injection, schedule: Q04DX002 (ip), vehicle: Klucel (hydroxypropylcellulose) (HPC) 92 % of control | dose: 100.0 mg/kg/injection, schedule: Q04DX002 (ip), vehicle: saline with Tween-80 99 % of control | dose: 200.0 mg/kg/injection, schedule: Q04DX002 (ip), vehicle: Klucel (hydroxypropylcellulose) (HPC) 100 % of control | dose: 200.0 mg/kg/injection, schedule: Q04DX002 (ip), vehicle: saline with Tween-80 99 % of control | dose: 400.0 mg/kg/injection, schedule: Q04DX002 (ip), vehicle: Klucel (hydroxypropylcellulose) (HPC) 103 % of control

O=[N+]([O-])c1ccc(C=Nc2ccccc2CO)s1
inactive: [3] 103 % of control | [4] 104 % of control | [5] 93 % of control

CCC/C=C/CC1CCCCC1
inactive: dose: 50.0 mg/kg/injection, schedule: Q01DX009 (ip), vehicle: saline 97 % of control | [1] 97 % of control | [2] 102 % of control

COc1cc([N+](=O)[O-])c(C)c(Br)c1N
inactive: [6] 100 % of control | [7] 100 % of control | [8] 96 % of control

O=C1c2cc(Br)cc(Br)c2NCCCC1(Br)Br
inactive: [3] 94 % of control | [4] 97 % of control | [5] 94 % of control

O=C(O)CN(Cc1ccccc1)C(=O)COc1ccc(Cl)c(Cl)c1
inactive: [9] 100 % of control | [10] 92 % of control | dose: 400.0 mg/kg/injection, schedule: Q04DX003 (ip), vehicle: gum acacia 91 % of control

Cc1ccc(-c2nc3ccccc3c(=O)o2)cc1
inactive: dose: 50.0 mg/kg/injection, schedule: Q01DX009 (ip), vehicle: gum acacia 93 % of control and 100 % of control | dose: 100.0 mg/kg/injection, schedule: Q01DX009 (ip), vehicle: gum acacia 93 % of control and 100 % of control | [9] 106 % of control | [10] 88 % of control

c1c[nH]c(C2Nc3ccccc3S2)c1 (stereo not drawn)
inactive: dose: 100.0 mg/kg/injection, schedule: Q01DX001 (ip), vehicle: saline 93 % of control | dose: 200.0 mg/kg/injection, schedule: Q01DX001 (ip), vehicle: saline 95 % of control

Cc1cc(N(CCCl)CCCl)ccc1C=Nc1cccc(Cl)c1
inactive: dose: 50.0 mg/kg/injection, schedule: Q01DX001 (ip), vehicle: carboxymethylcellulose (CMC) 100 % of control | [6] 107 % of control | [7] 100 % of control | [8] 94 % of control

C1CCC(NCCNC2CCCCC2)CC1
inactive: dose: 75.0 mg/kg/injection, schedule: Q01DX001 (ip), vehicle: saline 98 % of control

CN1CC(C(=O)NO)C=C2c3cccc4[nH]cc(c34)CC21 (stereo not drawn)
inactive: dose: 50.0 mg/kg/injection, schedule: Q04DX003 (ip), vehicle: alcohol 104 % of control | dose: 100.0 mg/kg/injection, schedule: Q04DX003 (ip), vehicle: alcohol 101 % of control | dose: 200.0 mg/kg/injection, schedule: Q04DX003 (ip), vehicle: alcohol 103 % of control

CC(C)[CH2][Sn](=[O])[CH2]C(C)C
inactive: dose: 6.25 mg/kg/injection, schedule: Q04DX002 (ip), vehicle: saline with Tween-80 108 % of control | dose: 12.5 mg/kg/injection, schedule: Q04DX002 (ip), vehicle: saline with Tween-80 96 % of control

Cc1ccc(NC(=O)COc2cc(Cl)c(Cl)cc2Cl)cc1C
inactive: dose: 25.0 mg/kg/injection, schedule: Q01DX009 (ip), vehicle: saline with Tween-80 89 % of control | dose: 50.0 mg/kg/injection, schedule: Q01DX009 (ip), vehicle: saline with Tween-80 97 % of control | dose: 100.0 mg/kg/injection, schedule: Q01DX009 (ip), vehicle: saline with Tween-80 89 % of control | dose: 400.0 mg/kg/injection, schedule: Q01DX009 (ip), vehicle: saline with Tween-80 94 % of control
